Test [1] has as its system human Mito-DsRed BMSCs or CD8+ T cells. The test can be described thus: Inhibitor drug treatment study, human co-culture. It counts as cell-based. As to conditions: 1-10 μM, data not shown. How it is done:
(§1) For pharmacological inhibition studies, both mouse and human Mito-DsRed BMSCs or CD8+ T cells were treated with 1-10 μM of farnesyltransferase/geranylgeranyltransferase 1 inhibitor (L-778123) (Biomol) incubated separately in their respective basal media for 7 hrs before or during co-culture. Cell viability of the different drug treatments was determined using the Trypan Blue exclusion test and quantified manually using a hemacytometer. All experiments were performed on at least 3-6 biological replicates/donors per condition.

Test [2] deals with nanotube-mediated mitochondria transfer. As to conditions: Nature Nanotechnology (2022) 17, 98-106; cited from earlier work.
The test system of test [3] is mouse Mito-DsRed BMSCs or CD8+ T cells. Briefly: Inhibitor drug treatment study, mouse co-culture. It counts as cell-based. To be noted: 1-10 μM, data not shown. How it is done: as §1

The structures appear in SMILES notation.

Consider one compound from patent US20250381273A1, “Augmenting Mitochondria in Immune Cells for Improved Cancer Immunotherapy” (LEIBNIZ-INSTITUT FÜR IMMUNTHERAPIE (LIT), priority 2022, published 2025).

Consider `N#Cc1ccc(Cn2cncc2CN2CCN(c3cccc(Cl)c3)C(=O)C2)cc1` [L-788,123], for which the “mitochondrial transfer in co-culture” value in test [1] and in test [3] was “confirmed that TNTs is a primary mediator of mitochondrial transfer” each time. In addition, the nanotube-mediated mitochondria transfer entry in test [2] was “partially block”.
